“Also recorded” adds a separate entry of the source.
What was measured:
axonal growth cones = assay: Neuronal migration in insect embryo model; format: in vivo; details: 5 μM
Procedure: Synthetic dihydromotuporamine (DiH-MPC, 5 μM) affected neuronal migration in a well-characterized insect embryo model. DiH-MPC slowed stereotypical migration of axonal growth cones whose ultimate synaptic targets are in the central nervous system (CNS). […] Therefore, the motuporamines have application in situations where reduced axonal sprouting would be of benefit after CNS wounding. This is of particular interest in spinal cord lesions where wound-induced axonal sprouting and migration (i.e. plasticity) leads to the inappropriate intermingling of neuronal pathways, which is a major impediment to clinically efficacious CNS regeneration.

MDA 231 cells [1] = assay: Assay for invasion inhibitors (Matrigel, recovery of non-invading cells, MTT); format: cell-based, human; details: for IC50: 2.5 h, read-out: IC50 invasion inhibition
Procedure: Matrigel (Collaborative Biomedical Products, Bedford, Mass.) was diluted 1:1 in ice-cold DMEM/F12 and 50 μl was pipetted into wells of ice-cold 96-well cell culture plates (Falcon) using ice-cold pipette tips, avoiding the sides of each well. The matrix was then allowed to gel and then dry overnight in a dry 37° C. incubator followed by rehydration with 100 μl of growth medium 1 h prior to cell plating. This treatment produces a matrix that is less prone to breakage. On top of the Matrigel, was added 100 μl medium warmed to 37° C., with or without 1 μl of sponge extract dissolved in DMSO, followed by 100 μl medium containing 60,000 MDA 231 cells. Addition of 1 μl of DMSO served as a negative control. 50 μM […] LY294002, a phosphatidylinositol 3-kinase inhibitor known to inhibit invasion, served as a positive control. The cells were then incubated for 2.5 h to allow invasion to take place.
Most of the cell culture, medium was removed without disturbing the cells. This may be accomplished using a hand-held pipettor, but more consistent results are achieved using the aspiration function of a Bio-Tek Elx405 96-well plate washer with the aspiration needle positioned about 2 mm above the surface of the Matrigel. […] The cells were then suspended by pipetting up and down three times using the 100 μl setting of a hand-held pipettor, and 100 μl was withdrawn and transferred to fresh plates without Matrigel containing 100 μl medium supplemented with 30% fetal calf serum to inactivate the trypsin. The cells were then incubated overnight to allow attachment of cells to the plastic surface. Live cells were measured using the MTT assay: the cell culture medium was replaced with 100 μl fresh medium and 25 μl of a 5 mg/ml solution of 3(4,5-dimethylthiazol-2-yl)-2,5-diphenyltetrazolium bromide in phosphate-buffered saline. After 2 hr at 37° C., the solution was removed and 100 μl of 20% sodium dodecyl sulfate dissolved in dimethylformamide: water (1:1) was added to lyse the cells. After overnight incubation at 37° C., absorbance was measured at 570 nm.

[2] = test system: primary Lewis lung tumour; assay: Development of tumour metastases in vivo; details: i.p. 15 mg/kg/day, C57 mice, primary tumour irradiated
Procedure: Primary tumours were grown to a specific size and then irradiated permitting the animals to survive long enough for lung metastases to be quantified.

MDA 231 cells [3] = assay: Cell spreading and actin cytoskeleton on tissue culture plastic; format: cell-based, human
Procedure: The cells were plated on rigid tissue culture plastic in the presence of serum, which contains spreading factors (Ham). Under these conditions, most MDA 231 cells spread on the plastic within 4 h in the absence of Motuporamine C. […] These ruffles, which appear black in phase contrast microscopy represent sites of dynamic actin-mediated membrane movement in both spreading and migrating cells. […] These rounded cells remained attached to the tissue culture plastic by small lamellae that had small, discontinuous ruffles.
MDA 231 cells were also pre-spread for 20 hours on tissue culture plastic and then treated with Motuporamine C (5 μM) for 4 hours.

MDA 231 cells [4] = assay: Cytotoxicity: cell proliferation after 24 h incubation with compound; format: cell-based, human; details: for effects on cell proliferation: 24 h, proliferation followed up to 5 additional days
Procedure: The cytotoxic effects of Motuporamine C were examined by incubating cells in the presence of different concentrations of the compound for 24 h. Motuporamine C was washed away and cell proliferation was measured for up to 5 additional days. […] Likewise, the compounds shown in FIGS. 1, 2, 4, 5, 6, and 8-13 have low cytotoxicity.

HUVEC [5] = assay: HUVEC survival and proliferation; format: cell-based, human
Procedure: (§1) Motuporamine C had no effect on survival of confluent HUVEC at concentrations up to 10 μM and for up to 72 hours. […] Rather, Motuporamine C inhibited HUVEC migration as assessed using a modified Boyden chamber assay.

[6] = test system: Lewis Lung and SCCVII tumours; assay: Tumour growth in vivo; details: i.p. daily, 10-15 mg/kg/day, mice
MDA 231 cells [7] = assay: Cell migration: closure of gap in confluent monolayer; format: cell-based, human; details: 5 μM, 24 hours
Procedure: The effects of Motuporamine C on cell spreading and actin ruffling indicates invasion inhibition by decreasing cell migration. A sterile toothpick was drawn across a confluent monolayer of MDA 231 cells, leaving a cell-free gap of about 100 μm. Closure of the gap by cell migration was monitored by microscopy. In the absence of Motuporamine C, cells migrated into the gap and essentially closed it within 24 hours. These cells had broad lamellar ruffles along their leading edges throughout which were condensations of actin. […] These cells had only small and discontinuous ruffles along their leading edges and contained only small discrete patches of actin, looking similar to the “button-like” condensations observed in pre-spread cells.

HUVEC [8] = assay: HUVEC migration, modified Boyden chamber assay; format: cell-based, human; details: 2.5 μM and 5 μM, VEGF 15 ng/ml
Procedure: as §1

[9] = test system: chick chorioallantoic membrane; assay: Chick chorioallantoic membrane assay (CAM) for angiogenesis; format: in vivo, chicken; details: VEGF 30 ng/ml
Procedure: Fertilized white Leghorn chicken eggs were incubated at 37° C. under conditions of constant humidity. On embryonic day 6, the developing chorioallantoic membrane (CAM) was separated form the shell by opening a small circular window at the broad end of the egg above the air sac. After removal of the inner membrane, the opening was sealed with Parafilm and the eggs were incubated for 2 more days. Motuporamine C was prepared in PBS supplemented with 30 ng/ml VEGF. On day 8, 20 μl was loaded onto 2 mm^3 gelatin sponges (Gelfoam, Pharmacia Upjohn) that were placed on the surface of the developing CAM. Sponges containing vehicle alone (20 μl PBS) were used as negative controls whereas sponges containing 20 μl of 30 ng/ml VEGF in PBS were used as positive controls, Eggs were resealed and returned to the incubator. On day 10, images of CAM were captured digitally using an Olympus SZX9 stereomicroscope equipped with a Sport RT digital imaging system (Diagnostics Instruments).

HUVEC [10] = assay: Endothelial sprouting assay; format: cell-based, human; details: VEGF 15 ng/ml
Procedure: Endothelial sprouting was assessed by a modification of Nehls, V. and Drenckham, D. (1995) Microvasc. Res, 50:311-322). Microcarrier beads coated with denatured collagen (Cytodex 3, Sigma) were seeded with HUVEC. When the cells reached confluence an the beads, equal numbers of HUVEC-coated beads were embedded in fibrin gels in 96-well plates. For preparation of fibrin gels, bovine fibrinogen was dissolved in MCDB medium at a concentration of 2.5 mg/ml. Aprotinin was added at a concentration of 0.05 mg/ml and the solution was filtered through a 0.22 μm filter. The fibrinogen solution was supplemented with 15 ng/ml vascular endothelial growth factor (VEGF) with or without Motuporamine C. As a control, fibrinogen solution without VEGF or Motuporamine C was used. […] After 3 days of incubation with daily changes of the medium, the number of capillary-like tubes formed per microcarrier bead (sprouts/bead) was counted by microscopy. Only sprouts greater than 150 μm in length and composed of at least 3 endothelial cells were counted.
In the endothelial sprouting assay, human umbilical vein endothelial cells (HUVEC) are seeded onto collagen-coated beads. Exposure to vascular endothelial growth factor stimulates the formation of capillary-like tubes called sprouts, whose number and length may be measured over time by microscopy.

`NCCCNCCCN1CCCCCCCCCCCCCC1` [DiH-MPC, Dihydromotuporamine C] was tested, and the “migration of axonal growth cones” value (axonal growth cones) was “slowed” and the “steering or pathfinding of growth cones” value (axonal growth cones) was “no steering or pathfinding deficits”.
For `NCCCNCCCN1CCCCCCCCCCCC1` [Motuporamine A], the IC50 (MDA 231 cells [1]; MDA 231 cells on Matrigel) was 3 µM.
With `NCCCNCCCN1CCCC/C=C\CCCCCCCC1` [Motuporamine C] the “incidence of lung metastases” value [2] was “decreased incidence”, the cell spreading (MDA 231 cells [3]; plated on plastic with serum, 4 h, increasing doses up to 5 μM) was “decreased cell spreading” and the “rounding of pre-spread cells” value (MDA 231 cells [3]; pre-spread 20 hours, 5 μM for 4 hours) was “did not round-up”. For the same molecule, the “actin cytoskeleton (rhodamine-phalloidin staining)” value (MDA 231 cells [3]; pre-spread cells, 5 μM for 4 hours) was “subtle changes”, the “rounding of pre-spread cells” value (MDA 231 cells [3]; treatment up to 48 hours) was “did not cause significant cell rounding” and the “effects on cell proliferation” value (MDA 231 cells [4]; 1.6 μM) was “no detectable effects”. The “effects on cell proliferation” value (MDA 231 cells [4]; 4 and 8 μM) was “mild inhibition”, the “cytotoxicity (in words)” value (MDA 231 cells [4]; proliferating MDA 231 cells, low micromolar concentrations) was “little or no toxicity” and the “proliferation rate of HUVEC” value (HUVEC [5]) was “does not decrease”. For the same molecule, the “survival of confluent HUVEC” value (HUVEC [5]; up to 10 μM, up to 72 hours) was “no effect”, the “reduction in tumour growth rate compared to controls” value [6] was 25-50% and the “tumour growth compared to vehicle controls” value [6] was “significant decrease”. For the same molecule, the “cell migration (gap closure)” value (MDA 231 cells [7]) was “slows cell migration”, the “migration of HUVEC towards VEGF” value (HUVEC [8]) was “inhibited the migration” and the “angiogenesis in CAM assay” value [9] was “inhibits angiogenesis”. For the same molecule, the “detachment of cells from the matrix” value (MDA 231 cells [1]; 5 μM) was “did not cause the cells to detach”, the “activity in the invasion inhibition assay (in words)” value (MDA 231 cells [1]; MDA 231 cells on Matrigel) was “strong activity; also recorded: slightly more active” and the “concentration that completely inhibited invasion” value (MDA 231 cells [1]; MDA 231 cells on Matrigel) was 5 µM. The IC50 (MDA 231 cells [1]; MDA 231 cells on Matrigel) was 1 µM, the “sprout formation in response to VEGF” value (HUVEC [10]; 2.5 μM) was “clear inhibition” and the “sprout formation in response to VEGF” value (HUVEC [10]; 5 μM) was “complete inhibition”.
`NCCCNCCCn1c2ccccc2c2ccccc21` [carbazole analog] was tested, and the “activity in the invasion inhibition assay (in words)” value (MDA 231 cells [1]; MDA 231 cells on Matrigel) was “potent activity” and the IC50 (MDA 231 cells [1]; MDA 231 cells on Matrigel) was 3 µM.
In the case of `C=C1[C@@H](C)[C@H]2[C@H](Cc3ccccc3)NC(=O)[C@]23[C@H](OC(C)=O)/C=C/[C@@](C)(O)C(=O)[C@@H](C)C/C=C/[C@H]3[C@@H]1O` [cytochalasin D, reference compound], the actin cytoskeleton (MDA 231 cells [3]; 1 μg/ml) is reported as “complete disassembly of the actin filaments” and the “rounding of pre-spread cells” value (MDA 231 cells [3]; 1 μg/ml) is reported as “round up completely”.
